The term IC50 denotes the point on the concentration scale where inhibition reaches its midpoint.

Here are results for two compounds from BindingDB's records for doi:10.1016/j.bmcl.2009.01.089 (Gsk, 2009).

The target of the experiment is T1, Gag-Pol polyprotein [1148-1435] (Human immunodeficiency virus 1, UniProt P04585).
T1 construct: 1148-1435
The experiment is described as follows: HIV Integrase Strand Transfer Scintillation Proximity Assay (SPA). How it is done: Purified recombinant integrase was first combined in a complex with biotinylated donor DNA- streptavidin-coated SPA beads. The complex was preincubated with the test compound, and strand transfer was initiated with a radiolabeled target DNA substrate. After incubation, the incorporated radioactivity was read in a Wallac MicroBeta scintillation plate reader using a counting protocol that corrected for optical cross talk between wells.
A general note: In a scintillation proximity assay essentially only radioactivity close to the scintillant gives light.

The structures appear in SMILES notation.

As to `NC(=O)c1nc(-c2nnc(Cc3ccc(F)cc3)o2)c(O)c2ncccc12` [7-{5-[(4-fluorophenyl)methyl]-1,3,4-oxadiazol-2-yl}-8-hydroxy-1,6-naphthyridine-5-carboxamide], the IC50 is 100 nM.
As for `Cc1ccc(S(=O)(=O)Nc2nc(-c3nnc(Cc4ccc(F)cc4)o3)c(O)c3ncccc23)cc1` [N-(7-{5-[(4-fluorophenyl)methyl]-1,3,4-oxadiazol-2-yl}-8-hydroxy-1,6-naphthyridin-5-yl)-4-methylbenzene-1-sulfonamide], the IC50 (pH 7.2, 37 °C) was 42 nM.
